This passage reports EC50 and IC50 results from US8987195B2 (priority 2012, dated 2015).

The pEC50 is the EC50 on a negative log10 scale, so that one unit is a factor of ten. The term pIC50 denotes the IC50 on a negative log10 scale, so that one unit is a factor of ten.

pEC50, pIC50: −log10 of the molar value. Like-named read-outs stand apart in the source and are kept apart here.

One assay concerns HCV genotype 1b replicon. The assay is described as follows: HCV replicon assay, genotype 1b replicon EC50. Particulars: Hepatitis C virus, HCV replicon, genotype 1b, read-out: EC50 [gt-1b]. It is filed as cell-based, Hepatitis C virus. Summed up: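 Potency comes from a four-parameter fit of signal as percent of DMSO control. Replicon-bearing cells were treated 24-48 hours with a compound dilution series in absence of G418, and replicon RNA was quantified normalized to cyclophilin A RNA, or luciferase read.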
(In general: A replicon is a self-replicating genome or part of one, used to study replication in cells.)

For assay [1], the target named is HCV NS3/4A protease genotype 1b (Hepatitis C virus genotype 1b, UniProt P26663). The assay is described as follows: HCV NS3/4A protease time-resolved fluorescence (TRF) assay, Ki against genotype 1b. It is filed as biochemical. Particulars: IC50 [gt-1b], NS3/4A protease TRF assay, genotype 1b enzyme 0.2 nM. The essentials: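 Enzyme 0.2 nM 1b / 0.4 nM A156T / 0.025 nM 3a; 30 min preinc. w/ cpd; 25 nM TRF peptide; 2.5 h RT; ex 340/em 615 time-delayed; 4-param IC50 → Ki = IC50/(1+[S]/KM).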

Regarding `Cc1nc2ccc(OCCN3CCOCC3)cc2c2c1O[C@]1(CC2)C[C@H]2C(=O)N[C@]3(C(=O)NS(=O)(=O)C4(C)CC4)C[C@H]3/C=C\CCCCC[C@H](NC(=O)OCC(C)(C)C)C(=O)N2C1` [Example 425, 2,2-dimethylpropyl {(2R,6S,12Z,13aS,14aR,16aS)-5′-methyl-14a-{[(1-methylcyclopropyl)sulfonyl]carbamoyl}-9′-[2-(morpholin-4-yl)ethoxy]-5,16-dioxo-1,1′,2′,5,6,7,8,9,10,11,13a,14,14a,15,16,16a-hexadecahydrospiro[cyclopropa[e]pyrrolo[1,2-a][1,4]diazacyclopentadecine-2,3′-pyrano[2,3-c]quinolin]-6-yl}carbamate], in the assay on HCV genotype 1b replicon, the pEC50 was 8.48. The same compound gave a pIC50 in assay [1] of 10.62.

As for `COc1ccc2nc(C(F)(F)F)c3c(c2c1)[C@@H](F)C[C@]1(C[C@H]2C(=O)N[C@]4(C(=O)NS(=O)(=O)C5(C)CC5)C[C@H]4/C=C\CCCCC[C@H](NC(=O)OC(C)(C)C)C(=O)N2C1)O3` [Example 426, tert-butyl [(l′S,2S,6S,12Z,13aS,14aR,16aS)-1′-fluoro-9′-methoxy-14a-{[(1-methylcyclopropyl)sulfonyl]carbamoyl}-5,16-dioxo-5′-(trifluoromethyl)-1,1′,2′,5,6,7,8,9,10,11,13a,14,14a,15,16,16a-hexadecahydrospiro[cyclopropa[e]pyrrolo[1,2-a][1,4]diazacyclopentadecine-2,3′-pyrano[2,3-c]quinolin]-6-yl]carbamate], the pEC50 in the assay with HCV genotype 1b replicon was 7.67. Besides, the negative-log IC50 (pIC50) in assay [1] was 9.22.

For `COc1ccc2nc(C(F)(F)F)c3c(c2c1)[C@H](F)C[C@]1(C[C@H]2C(=O)N[C@]4(C(=O)NS(=O)(=O)C5(C)CC5)C[C@H]4/C=C\CCCCC[C@H](NC(=O)OC(C)(C)C)C(=O)N2C1)O3` [Example 427, tert-butyl [(l′R,2S,6S,12Z,13aS,14aR,16aS)-1′-fluoro-9′-methoxy-14a-{[(1-methylcyclopropyl)sulfonyl]carbamoyl}-5,16-dioxo-5′-(trifluoromethyl)-1,1′,2′,5,6,7,8,9,10,11,13a,14,14a,15,16,16a-hexadecahydrospiro[cyclopropa[e]pyrrolo[1,2-a][1,4]diazacyclopentadecine-2,3′-pyrano[2,3-c]quinolin]-6-yl]carbamate], the pEC50 in the assay on HCV genotype 1b replicon was 8.84. Besides, in assay [1], the pIC50 was 10.82.

For `COc1ccc2nc(C3CC3)c3c(c2c1)[C@H](F)C[C@]1(C[C@H]2C(=O)N[C@]4(C(=O)NS(=O)(=O)C5(C)CC5)C[C@H]4/C=C\CCCCC[C@H](NC(=O)OC(C)(C)C)C(=O)N2C1)O3` [Example 428, tert-butyl [(l′R,2S,6S,12Z,13aS,14aR,16aS)-5′-cyclopropyl-1′-fluoro-9′-methoxy-14a-{[(1-methylcyclopropyl)sulfonyl]carbamoyl}-5,16-dioxo-1,1′,2′,5,6,7,8,9,10,11,13a,14,14a,15,16,16a-hexadecahydrospiro[cyclopropa[e]pyrrolo[1,2-a][1,4]diazacyclopentadecine-2,3′-pyrano[2,3-c]quinolin]-6-yl]carbamate], the pEC50 in the assay with HCV genotype 1b replicon was 8.66. Also, the negative logarithm of the IC50 (pIC50) in assay [1] was 10.70.

For `COc1ccc2nc(C)c3c(c2c1)CC[C@]1(C[C@H]2C(=O)N[C@]4(C(=O)NS(=O)(=O)C5(C)CC5)C[C@H]4/C=C\CCCCC[C@H](Nc4ncccc4C)C(=O)N2C1)O3` [Example 429, (2R,6S,12Z,13aS,14aR,16aS)-9′-methoxy-5′-methyl-N-[(1-methylcyclopropyl)sulfonyl]-6-[(3-methylpyridin-2-yl)amino]-5,16-dioxo-1,1′,2′,6,7,8,9,10,11,13a,14,15,16,16a-tetradecahydrospiro[cyclopropa[e]pyrrolo[1,2-a][1,4]diazacyclopentadecine-2,3′-pyrano[2,3-c]quinoline]-14a(5H)-carboxamide], the pEC50 in the assay on HCV genotype 1b replicon was 8.37. The same compound had a pIC50 in assay [1] of 9.71.

Take `COCCOc1ccc2nc(C)c3c(c2c1)CC[C@]1(C[C@H]2C(=O)N[C@]4(C(=O)NS(=O)(=O)C5(C)CC5)C[C@H]4/C=C\CCCCC[C@H](NC(=O)OC(C)(C)C(F)(F)F)C(=O)N2C1)O3` [Example 430, 1,1,1-trifluoro-2-methylpropan-2-yl [(2R,6S,12Z,13aS,14aR,16aS)-9′-(2-methoxyethoxy)-5′-methyl-14a-{[(1-methylcyclopropyl)sulfonyl]carbamoyl}-5,16-dioxo-1,1′,2′,5,6,7,8,9,10,11,13a,14,14a,15,16,16a-hexadecahydrospiro[cyclopropa[e]pyrrolo[1,2-a][1,4]diazacyclopentadecine-2,3′-pyrano[2,3-c]quinolin]-6-yl]carbamate]: in the assay with HCV genotype 1b replicon, the pEC50 is 8.30. In assay [1], the pIC50 was 10.59.

Turning to `COc1ccc2nc(C)c3c(c2c1)CC[C@]1(C[C@H]2C(=O)N[C@]4(C(=O)NS(=O)(=O)C5(C)CC5)C[C@H]4/C=C\CCCCC[C@H](Nc4cccc(OC)n4)C(=O)N2C1)O3` [Example 431, (2R,6S,12Z,13aS,14aR,16aS)-9′-methoxy-6-[(6-methoxypyridin-2-yl)amino]-5′-methyl-N-[(1-methylcyclopropyl)sulfonyl]-5,16-dioxo-1,1′,2′,6,7,8,9,10,11,13a,14,15,16,16a-tetradecahydrospiro[cyclopropa[e]pyrrolo[1,2-a][1,4]diazacyclopentadecine-2,3′-pyrano[2,3-c]quinoline]-14a(5H)-carboxamide], the negative-log EC50 (pEC50) in the assay on HCV genotype 1b replicon is 8.04. For the same compound, the pIC50 in assay [1] is 9.68.

Take `COc1ccnc(N[C@H]2CCCCC/C=C\[C@@H]3C[C@@]3(C(=O)NS(=O)(=O)C3(C)CC3)NC(=O)[C@@H]3C[C@]4(CCc5c(c(C)nc6ccc(OC)cc56)O4)CN3C2=O)c1` [Example 432, (2R,6S,12Z,13aS,14aR,16aS)-9′-methoxy-6-[(4-methoxypyridin-2-yl)amino]-5′-methyl-N-[(1-methylcyclopropyl)sulfonyl]-5,16-dioxo-1,1′,2′,6,7,8,9,10,11,13a,14,15,16,16a-tetradecahydrospiro[cyclopropa[e]pyrrolo[1,2-a][1,4]diazacyclopentadecine-2,3′-pyrano[2,3-c]quinoline]-14a(5H)-carboxamide]: the pEC50 in the assay with HCV genotype 1b replicon was 8.13. In addition, in assay [1], the pIC50 is 10.04.

Turning to `CCc1nc2ccc(OC)cc2c2c1O[C@]1(CC2)C[C@H]2C(=O)N[C@]3(C(=O)NS(=O)(=O)C4(C)CC4)C[C@H]3/C=C\CCCCC[C@H](NC(=O)O[C@H](C)C(C)C)C(=O)N2C1` [Example 433, (2R)-3-methylbutan-2-yl [(2R,6S,12Z,13aS,14aR,16aS)-5′-ethyl-9′-methoxy-14a-{[(1-methylcyclopropyl)sulfonyl]carbamoyl}-5,16-dioxo-1,1′,2′,5,6,7,8,9,10,11,13a,14,14a,15,16,16a-hexadecahydrospiro[cyclopropa[e]pyrrolo[1,2-a][1,4]diazacyclopentadecine-2,3′-pyrano[2,3-c]quinolin]-6-yl]carbamate], the pEC50 in the assay with HCV genotype 1b replicon was 8.66. The compound also gave a pIC50 in assay [1] of 10.92.

Regarding `CCc1nc2ccc(OC)cc2c2c1O[C@]1(CC2)C[C@H]2C(=O)N[C@]3(C(=O)NS(=O)(=O)C4(C)CC4)C[C@H]3/C=C\CCCCC[C@H](NC(=O)O[C@@H](C)C(C)C)C(=O)N2C1` [Example 434, (2S)-3-methylbutan-2-yl [(2R,6S,12Z,13aS,14aR,16aS)-5′-ethyl-9′-methoxy-14a-{[(1-methylcyclopropyl)sulfonyl]carbamoyl}-5,16-dioxo-1,1′,2′,5,6,7,8,9,10,11,13a,14,14a,15,16,16a-hexadecahydrospiro[cyclopropa[e]pyrrolo[1,2-a][1,4]diazacyclopentadecine-2,3′-pyrano[2,3-c]quinolin]-6-yl]carbamate], the pEC50 in the assay on HCV genotype 1b replicon was 8.75. The pIC50 in assay [1] is 10.92.

As for `COC(=O)N[C@H]1CCCCC/C=C\[C@@H]2C[C@@]2(C(=O)NS(=O)(=O)C2(C)CC2)NC(=O)[C@@H]2C[C@]3(CCc4c(c(C5CC5)nc5ccc(OC)cc45)O3)CN2C1=O` [Example 435, methyl [(2R,6S,12Z,13aS,14aR,16aS)-5′-cyclopropyl-9′-methoxy-14a-{[(1-methylcyclopropyl)sulfonyl]carbamoyl}-5,16-dioxo-1,1′,2′,5,6,7,8,9,10,11,13a,14,14a,15,16,16a-hexadecahydrospiro[cyclopropa[e]pyrrolo[1,2-a][1,4]diazacyclopentadecine-2,3′-pyrano[2,3-c]quinolin]-6-yl]carbamate], the pEC50 in the assay on HCV genotype 1b replicon (K+ salt) is 8.51. The pIC50 in assay [1] (K+ salt) was 10.16.

Regarding `CCOC(=O)N[C@H]1CCCCC/C=C\[C@@H]2C[C@@]2(C(=O)NS(=O)(=O)C2(C)CC2)NC(=O)[C@@H]2C[C@]3(CCc4c(c(C5CC5)nc5ccc(OC)cc45)O3)CN2C1=O` [Example 436, ethyl [(2R,6S,12Z,13aS,14aR,16aS)-5′-cyclopropyl-9′-methoxy-14a-{[(1-methylcyclopropyl)sulfonyl]carbamoyl}-5,16-dioxo-1,1′,2′,5,6,7,8,9,10,11,13a,14,14a,15,16,16a-hexadecahydrospiro[cyclopropa[e]pyrrolo[1,2-a][1,4]diazacyclopentadecine-2,3′-pyrano[2,3-c]quinolin]-6-yl]carbamate], in the assay with HCV genotype 1b replicon (K+ salt), the pEC50 is 8.93. In addition, the pIC50 in assay [1] (K+ salt) is 10.54.
